From patent publication US6790862B2 (priority 1999, dated 2004)
In brackets after ≈: the same amount, converted by molar mass. Read-outs that look alike come from different tables or passages of the source.

Legend:
[1] = indirect, fragment-based computational calculation; cited from earlier work
[2] = test system: P388 (Murine Leukemia) cells; assay: anti-tumor assay, P388 cell growth, MTT; format: cell-based; settings: Mus musculus, 72 hours incubation, read-out: cytotoxic to P388 murine leukemia cells (IC50)
Method: The bioactivity of peloruside A as an anti-tumor agent was determined by an anti-tumor assay. For the anti-tumor assay a 2-fold dilution series of the same of interest is incubated for 72 hours with P388 (Murine Leukemia) cells. The concentration of sample required to reduce the P388 cell growth by 50% (comparative to control cells) is determined using the absorbance values obtained with the yellow dye MTT tetrazollum is reduced by healthy cells to the purple colour MTT formazan. The result is expressed as an IC50 in ng/mL.

LLC-PK1 (pig kidney) = assay: MTT cytotoxicity assay, 96 hours exposure; format: cell-based; settings: LLC-PK1, 96 hours exposure
Method: (§1) The cytotoxicity of Peloruside A was tested in five cell lines:
(§2) 32D (murine myeloid) generally in accordance with the MTT assay of Burres et al., J. Cancer Research (1989), 49, 2935-2940.
(§3) Briefly, cell lines were maintained in Dulbecco's modified Eagle's medium: F12 medium (50:50) (Gibco) supplemented with 10% fetal calf serum (Gibco), […] Penicillin G, and […] streptomycin sulfate. After 96 hours exposure to the toxin, cell viability was determined by the MTT calorimetric assay. […] Data were analysed with the SYSTAT statistical program using a non-linear model fit, and IC50 values were calculated using a Logit-Log plot.

P388 (murine leukemia) = assay: MTT cytotoxicity assay, 96 hours exposure; format: cell-based; settings: P388, 96 hours exposure
Method: as §1, §2, §3

[3] = test system: H441 (human lung adenocarcinoma); assay: MTT cytotoxicity assay, 96 hours exposure; format: cell-based; settings: for nuclei break up into small vessicles (nuclear blebbing): H441, comparators at their respective LD50s
Method: as §1
H441 (human lung adenocarcinoma)
as §2, §3

[4] = test system: SH-SY5Y (human neuroblastoma); assay: MTT cytotoxicity assay, 96 hours exposure; format: cell-based
Method: as §1
SH-SY5Y (human neuroblastoma)
as §2, §3

32D (murine myeloid) = assay: MTT cytotoxicity assay; format: cell-based
Method: as §1, §2
as §3, with “After 96 hours exposure to the toxin, cell viability was determined by the MTT calorimetric assay.” left out

[5] = test system: different cell lines (H441, SY5Y, HL-60, 32D-ras, 32D, LLC-PK1); assay: MTT cell proliferation assay in the different cell lines; format: cell-based; settings: 96 h; 4-day exposure
Method: (§4) Tumorigenic and non-tumorigenic cell lines were cultured as previously described in Hood K. A., West L. M., Northcote P. T., Berridge M. V., Miller J. H., Apoptosis (2001), 6, 207-219. These cell lines included HL-60 and KS62, two tumorigenic human myeloid leukemic cell lines, 32D clone 3 (32D), a non-tumorigenic murine myeloid cell line, 32D-ras, the ras-transformed derivative of 32D, H441, a human lung adenocarcinoma cell line, SH-SY5Y, a human neuroblastoma cell line, and LLC-PK1, a non-tumorigenic pig kidney cell line. IC50 values for Peloruside A in the different cell lines were determined using the tetrazolium-based MTT cell proliferation assay as previously described (Hood K. A et al.).

HL-60 cells = assay: MTT cell proliferation assay; format: cell-based, human; settings: for IC50: Homo sapiens
Method: as §4

H441 cells [6] = assay: cellular morphology, phase-contrast microscopy; format: cell-based, human; settings: for treated cells with intracellular fiber bundles: H441, 48 h; for treated cells with intracellular fiber bundles / micronuclei: 100 nM; for micronuclei: H441, 2 days exposure; for intracellular fiber bundles: H441, phase-contrast microscopy
Method: Phase-contrast photomicrographs of H441 human lung adenocarcinoma cells: untreated control cells (A) and cells exposed for 48 h to 100 nM Peloruside A (B) or 100 nM paclitaxel (C). Note the intracellular fiber bundles in approximately 10% of the treated cells and the numerous micronuclei, each with a dark central spot of condensed DNA. Scale bar=[…].

K562 cells = assay: cellular morphology; format: cell-based, human; settings: K562, 2 days exposure, 100 nM
HeLa cells = assay: anti-metabolic activity, WST-1 reduction; format: cell-based; design: stimulation of WST-1 reduction: dose or concentration left out as unconfirmed
Method: (§5) The effect of Peloruside A and paclitaxel on superoxide production was determined using human peripheral blood neutrophils activated with […] N-formyl-met-leu-phe (fMLP) as described previously (Tan A. S., Berridge M. V., J. Immunol. Meth. (2000), 238, 59-68). In this microplate assay, the cell-impermeable tetrazolium salt, WST-1, is reduced to its soluble formazan and dye reduction measured at 450 nm as an initial rate over 10-20 min. Samples were equilibrated with cells for 3 min at 37° C. and the reaction initiated by adding fMLP. Measurement of anti-metabolic activity followed a similar microplate protocol except that HeLa cells were used instead of neutrophils, cells were not activated with fMLP, and the intermediate electron acceptor, 1-methoxy phenazine methosulfate at 25 mM, was included in the WST-1 reagent to facilitate detection of low potential electrons from the plasma membrane.

H441 cells [7] = assay: cell cycle by flow cytometry (PI) and mitotic index; format: cell-based, human; design: metaphase-arrested cells (mitotic index): dose or concentration left out as unconfirmed; settings: H441, 24 h
Method: Using standard methodology, the DNA of cells was stained with propidium iodide (PI), and the proportion of cells in different phases of the cell cycle was monitored by flow cytometry. Briefly, H441 cells were treated with […] for 24 h. Adherent cells were collected by trypsinization and added to those in suspension. The cells were then fixed with cold 70% ethanol overnight and stained with PI solution consisting of 45 mg/mL PI, 10 mg/mL RNaseA, and 0.1% glucose. After a 2 h incubation at RT, samples were analysed in a FACSort flow cytometer (Becton Dickinson).
Cells were treated with […] Peloruside A or paclitaxel, stained with PI, and counted by flow cytometry. For the mitotic index, cells were treated for 24 h with different concentrations of Peloruside A or paclitaxel, and the number of cells in mitosis divided by the total number of cells (n=at least 400 cells counted in each of 3 preparations).

b-tubulin in HL-60 cells = assay: in situ tubulin polymerization, immunoblot of soluble and particulate fractions; format: cell-based, human; settings: 5 h; for b-tubulin remaining in the soluble fraction: HL-60, 100 nM; for effect on proportion of soluble to polymerized tubulin: HL-60, different concentrations
Excerpt: A simple in situ cellular assay as described by Giannakakou P., Gussio R., Nogales E., Downing K. H., Zaharevitz D., Bollbuck B., Poy G., Sackett D., Nicolaou K. C., Fojo T., Proc. Nat. Acad. Sci. (USA) (2000), 97, 2904-2909 was used in which the shift in tubulin from depolymerized to polymerized forms was followed by electrophoresis and Western blotting of centrifuged particulate and cytosolic fractions. To summarize, 2×10^6 untreated and drug-exposed HL-60 cells were lysed by exposure for 5 min at 37° C. to […] of hypotonic buffer (1 mM MgCl2, 2 mM EGTA, 1% Nonidet P-40, 2 mM phenylmethylsulfonyl fluoride, 1 mg/mL aprotinin, 2 mg/mL pepstatin, and 20 mM Tris-HCl, pH 6.8) and the particulate fraction separated from the soluble cytosolic fraction by high speed centrifugation for 10 min in a bench-top centrifuge. Samples labeled ‘0 min’ received drug immediately before collection of the cells. The processing of the cells to the critical centrifugation step required approximately 30 min. The pellet was dissolved in […] of sample buffer (8 M urea, 4% CHAPS, 3 M thiourea, and 40 mM DTT). Twenty mL of loading buffer was added to each […] sample, the samples were vortexed and then boiled for 5 min. Twenty mL of each sample was loaded on an SDS/10% polyacrylamide gel and resolved by electrophoresis. b-Tubulin bands were identified by Western blotting using b-tubulin primary antibody ( 1/1000 dilution) following standard immunoblotting procedures with detection by enhanced chemiluminescence (Lumi-Light, Roche).
Scale bar (lower right)=500 nm.

purified tubulin = assay: in vitro tubulin polymerization and electron microscopy; format: biochemical; design: polymerization of purified tubulin in solution: dose or concentration left out as unconfirmed; settings: for polymerization of purified tubulin in solution: 30 min, 37° C., electron microscopy; for stability of induced microtubules: at 0C
Method: Purified tubulin (approximately 7.5 mg protein) containing approximately 15% microtubule-associated proteins was obtained from Sigma and reconstituted in 0.1 M MES buffer, pH 6.8, 1 mM EGTA, 0.1 mM EDTA, 0.5 mM MgCl2, 1 mM DTT, 0.1 mM GTP, 1 mg/mL leupeptin, 1 mg/mL aprotinin, and 100 mg/mL sucrose as stabilizer. The reconstituted tubulin was incubated at 37° C. for 30 min in the presence of […] Peloruside A or […] paclitaxel. Samples […] were pipetted onto 400-mesh carbon- and Formvar-coated copper grids and left for 2 min at RT before blotting with filter paper. Each grid was stained with 5 mL of 1% uranyl acetate for 3 min at RT, then blotted with filter paper. Grids were air-dried overnight before examination in a Philips CM100 transmission electron microscope.
(B) Immunoblots following exposure to […] Peloruside A and […] paclitaxel for varying lengths of time. (C) Transmission electron micrograph of microtubules formed following treatment of purified soluble tubulin with […] Peloruside A for 30 min at 37° C. Scale bar (lower right)=500 nm.

[8] = lipophilicity by thin layer chromatography; format: physicochemical
[9] = test system: human peripheral blood neutrophils; assay: fMLP-activated respiratory burst, superoxide production (WST-1); format: cell-based; design: dose or concentration left out as unconfirmed
Method: as §5

Compound | nuclei break up into small vessicles (nuclear blebbing) [3] | IC50 (HL-60 cells; HL-60) | treated cells with intracellular fiber bundles (H441 cells [6]) | micronuclei (H441 cells [6]) | intracellular fiber bundles (H441 cells [6]) | micronuclei (K562 cells) | cell cycle arrest (H441 cells [7]) | metaphase-arrested cells (mitotic index) (H441 cells [7]) | b-tubulin remaining in the soluble fraction (b-tubulin in HL-60 cells) | effect on proportion of soluble to polymerized tubulin (b-tubulin in HL-60 cells) | polymerization of purified tubulin in solution (purified tubulin) | stability of induced microtubules (purified tubulin) | other results
C=C/C=C\[C@H](C)[C@H](OC(N)=O)[C@@H](C)[C@H](O)[C@@H](C)C/C(C)=C\[C@H](C)[C@@H](O)[C@@H](C)/C=C\[C@@H](O)C[C@@H]1OC(=O)[C@H](C)[C@@H](O)[C@H]1C [Discodermolide, discodermolide] | – | – | – | – | – | – | – | – | – | – | – | – | solubility relative to paclitaxel [1]: 160 fold
CCC(/C=C(/C)C1C[C@H](OC)C[C@@H](O)C(C)(C)[C@]2(O)OC(CC(OC)C2O)C[C@H](OC)[C@@H](O)C(=O)O1)CO (stereo partly drawn) [Peloruside A] | nuclei of the cells were observed to break up into small vessicles | 7 ± 4 nM | approximately 10% | multiple micronuclei were observed | large intracellular fiber bundles were observed | multiple micronuclei were observed | partial cell cycle arrest at G2/M | 34±2% | No detectable b-tubulin remained in the soluble fraction | dose-dependent shifts of soluble tubulin to the particulate fraction | polymerize in solution into typical, long, straight microtubules | stable | IC50 [2]: ~0.01 µg/mL (≈ 0.0182 µM); LD50 (LLC-PK1 (pig kidney)): 3.7 nM; LD50 (P388 (murine leukemia)): 18 nM; LD50 ([3]; H441, 96 hours exposure): 6.2 nM; retraction of dendrites [4]: no retraction of dendrites was observed; LD50 ([4]; 96 hours exposure): 14.9 nM; LD50 (32D (murine myeloid); 96 hours exposure): 0.0078 µM; LD50 (32D (murine myeloid); viability at 24 hours of exposure): 1600 µM; IC50 [5]: 4 to 15 nM; stimulation of WST-1 reduction (HeLa cells): 20%; lipophilicity [8]: less lipophilic than paclitaxel
CC(=O)O[C@H]1C(=O)[C@@]2(C)[C@H]([C@H](OC(=O)c3ccccc3)[C@]3(O)C[C@H](OC(=O)[C@H](O)[C@@H](NC(=O)c4ccccc4)c4ccccc4)C(C)=C1C3(C)C)[C@]1(OC(C)=O)CO[C@@H]1C[C@@H]2O [paclitaxel, Paclitaxel, reference compound] | – | – | approximately 10% | multiple micronuclei were observed | large intracellular fiber bundles were observed | multiple micronuclei were observed | partial cell cycle arrest at G2/M | 64±4% | No detectable b-tubulin remained in the soluble fraction | dose-dependent shifts of soluble tubulin to the particulate fraction | polymerize in solution into typical, long, straight microtubules | stable | IC50 (HL-60 cells; HL-60 cells, ± S.E.M., read-out: IC50): 22 ± 8 nM; effect on neutrophil activation [9]: no effect; effect on WST-1 reduction (HeLa cells; 12-24 mM): little effect
C=C1C[C@](OC)([C@H](O)C(=O)N[C@H]2OCO[C@H]3[C@@H]2O[C@H](C[C@H](O)CO)C(C)(C)[C@@H]3OC)O[C@H](C)[C@@H]1C [mycalamide A, reference compound] | not been observed | – | – | – | – | – | – | – | – | – | – | – | –
CCC(/C=C(/C)C1C[C@H](OC)C[C@@H](O)C(C)(C)C(O)C(O)C(OC)C[C@H](O)C[C@H](OC)[C@@H](O)C(=O)O1)CO (stereo partly drawn) [Peloruside A reduction product] | – | 221 ± 24 nM | – | – | – | – | – | – | – | no significant effect | – | – | increase of IC50 relative to Peloruside A (HL-60 cells; HL-60 cells): 31 fold
pateamine [reference compound] | not been observed | – | – | – | – | – | – | – | – | – | – | – | –
